Source: ChEMBL document CHEMBL1201861, “Genomics of Drug Sensitity in Cancer screening data, Wellcome Trust Sanger Institute”

Legend:
Assay type in all cases: functional, cell-based
DG-75 = assay: cells; settings: Homo sapiens
Description: SANGER: Inhibition of human DG-75 cell growth in a cell viability assay.

DMS-153 = assay: cells; settings: Homo sapiens
Description: SANGER: Inhibition of human DMS-153 cell growth in a cell viability assay.

HCC 2998 = assay: cells; settings: Homo sapiens
Description: SANGER: Inhibition of human HCC2998 cell growth in a cell viability assay.

KMS-12-PE = assay: cells; settings: Homo sapiens
Description: SANGER: Inhibition of human KMS-12-PE cell growth in a cell viability assay.

KP-N-YN = assay: cells; settings: Homo sapiens
Description: SANGER: Inhibition of human KP-N-YN cell growth in a cell viability assay.

LB647-SCLC = assay: cells; settings: Homo sapiens
Description: SANGER: Inhibition of human LB647-SCLC cell growth in a cell viability assay.

LB996-RCC = assay: cells; settings: Homo sapiens
Description: SANGER: Inhibition of human LB996-RCC cell growth in a cell viability assay.

LU-165 = assay: cells; settings: Homo sapiens
Description: SANGER: Inhibition of human LU-165 cell growth in a cell viability assay.

NB14 = assay: cells; settings: Homo sapiens
Description: SANGER: Inhibition of human NB14 cell growth in a cell viability assay.

NCI-H2081 = assay: cells; settings: Homo sapiens
Description: SANGER: Inhibition of human NCI-H2081 cell growth in a cell viability assay.

NCI-H2171 = assay: cells; settings: Homo sapiens
Description: SANGER: Inhibition of human NCI-H2171 cell growth in a cell viability assay.

NCI-H2196 = assay: cells; settings: Homo sapiens
Description: SANGER: Inhibition of human NCI-H2196 cell growth in a cell viability assay.

NCI-H748 = assay: cells; settings: Homo sapiens
Description: SANGER: Inhibition of human NCI-H748 cell growth in a cell viability assay.

REH = assay: cells; settings: Homo sapiens
Description: SANGER: Inhibition of human REH cell growth in a cell viability assay.

RPMI 8402 = assay: SANGER: Inhibition of human RPMI-8402 cell growth in a cell viability assay.
SIG-M5 = assay: cells; settings: Homo sapiens
Description: SANGER: Inhibition of human SIG-M5 cell growth in a cell viability assay.

SK-MM-2 = assay: cells; settings: Homo sapiens
Description: SANGER: Inhibition of human SK-MM-2 cell growth in a cell viability assay.

A253 cell line = assay: cells; settings: Homo sapiens
Description: SANGER: Inhibition of human A253 cell growth in a cell viability assay.

TE-441-T = assay: cells; settings: Homo sapiens
Description: SANGER: Inhibition of human TE-441-T cell growth in a cell viability assay.

U-698-M = assay: cells; settings: Homo sapiens
Description: SANGER: Inhibition of human U-698-M cell growth in a cell viability assay.

WSU-NHL = assay: cells; settings: Homo sapiens
Description: SANGER: Inhibition of human WSU-NHL cell growth in a cell viability assay.

CHP-126 = assay: cells; settings: Homo sapiens
Description: SANGER: Inhibition of human CHP-126 cell growth in a cell viability assay.

## CCn1c(-c2nonc2N)nc2cnc(Oc3cccc(NC(=O)c4ccc(OCCN5CCOCC5)cc4)c3)cc21 [GSK-269962A]
DG-75
  IC50: > 2500 nM
DMS-153
  IC50: > 2500 nM
HCC 2998
  IC50: > 2500 nM
KMS-12-PE
  IC50: > 2500 nM
KP-N-YN
  IC50: > 2500 nM
LB647-SCLC
  IC50: > 2500 nM
LB996-RCC
  IC50: > 2500 nM
LU-165
  IC50: > 2500 nM
NB14
  IC50: > 2500 nM
NCI-H2081
  IC50: > 2500 nM
NCI-H2171
  IC50: 959 nM
NCI-H2196
  IC50: > 2500 nM
NCI-H748
  IC50: > 2500 nM
REH
  IC50: > 2500 nM
RPMI 8402
  IC50: > 2500 nM
SIG-M5
  IC50: > 2500 nM
SK-MM-2
  IC50: > 2500 nM
A253 cell line
  IC50: > 2500 nM
TE-441-T
  IC50: > 2500 nM
U-698-M
  IC50: > 2500 nM
WSU-NHL
  IC50: > 2500 nM
CHP-126
  IC50: > 2500 nM
